Source: PubChem BioAssay (NCI)
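How tested: cells in 96-well plates exposed to compound for 48 hours at five concentrations. Abbreviation: GI50, concentration required for 50% inhibition of growth. TGI: concentration producing complete growth inhibition.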

What was measured:
Assay in all cases: DTP human tumour cell line panel, 48 h
[1] = system: 786-0 renal
[2] = system: A498 renal
[3] = system: CAKI-1 renal
[4] = system: RPMI-8226 leukemia
[5] = system: RXF 393 renal
[6] = system: SNB-75 CNS
[7] = system: UACC-62 melanoma
[8] = system: EKVX NSCLC
[9] = system: DU-145 prostate
[10] = system: MCF7 breast

Row | SMILES | GI50 [1] [µM] | TGI [1] [µM] | GI50 [2] [µM] | TGI [2] [µM] | GI50 [3] [µM] | TGI [3] [µM] | GI50 [4] [µM] | TGI [4] [µM] | GI50 [5] [µM] | TGI [5] [µM] | GI50 [6] [µM] | TGI [6] [µM] | GI50 [7] [µM] | TGI [7] [µM] | TGI [8] [µM] | GI50 [9] [µM] | TGI [9] [µM] | GI50 [10] [µM] | TGI [10] [µM] | GI50 [8] [µM]
1 | CC(=O)[CH-]C(=O)c1ccccc1.CC(=O)[CH-]C(=O)c1ccccc1.CC(=O)[CH-]C(=O)c1ccccc1.[In+3] | 61.5 | > 100 | 23.2 | 56.8 | 99.7 | > 100 | 19.2 | 64.4 | 48.3 | > 100 | 19.8 | > 100 | 32.9 | > 100 | – | – | – | – | – | –
2 | O=C(NC(=Nc1ccccc1)SCCSC(=Nc1ccccc1)NC(=O)c1cccs1)c1cccs1 | – | > 100 | – | > 100 | – | > 100 | – | > 100 | – | 68.9 | – | 99.8 | – | > 100 | > 100 | – | – | – | – | –
3 | CCN(CC)c1oc(N(CC)CC)c(C(=O)Nc2ccccn2)c(=O)c1C(C)=O | – | > 100 | – | > 100 | – | > 100 | – | > 100 | – | – | – | > 100 | – | > 100 | > 100 | – | – | – | – | –
4 | CC1(C)CC2CC(CC(C)(C)C2=O)C1=O | – | > 100 | – | > 100 | – | > 100 | – | > 100 | – | > 100 | – | > 100 | – | > 100 | > 100 | – | – | – | – | –
5 | C[C@]12CCC(=O)CC1CCCC2=O (some centres not stated) | – | > 100 | – | > 100 | – | > 100 | – | > 100 | – | > 100 | – | > 100 | – | > 100 | > 100 | – | – | – | – | –
6 | COc1ccc(COC2CC(OC)OC(C)C2OC(=O)c2ccccc2)cc1 (configuration not stated) | – | > 100 | – | > 100 | – | > 100 | – | 46.7 | – | > 96.6 | – | > 100 | – | > 100 | > 100 | – | – | – | – | –
7 | Nc1c(C(=O)c2cccc(-c3cccnc3)c2)cnn1-c1ccc(F)cc1F | 18.1 | > 25 | 2.64 | > 23 | 4.53 | > 25 | 9.54 | > 25 | 7.91 | > 25 | 5.33 | > 25 | 2.65 | > 25 | – | 12 | > 25 | 1.59 | > 25 | –
8 | CCCN(CCC)C(=O)C(=O)c1c(N)[nH]n(-c2ccccc2)c1=O | – | > 100 | – | > 100 | – | > 100 | – | > 100 | – | – | – | – | – | > 100 | > 100 | – | – | – | – | –
9 | CCOC(=O)c1cc2c(n1Cc1cc(OC)c(OC)c(OC)c1)-c1oncc1CCC2 | 0.583 | > 35.9 | 0.0602 | 0.435 | 0.105 | > 27.8 | 0.42 | 21.9 | 0.126 | > 100 | 0.111 | > 61.7 | 0.0666 | > 40.3 | – | 0.302 | 6.87 | 0.0589 | > 66.5 | –
10 | CNC(=O)OCc1c2ccncc2c(C)c2c1[nH]c1ccc(OC)cc12 | – | 0.494 | – | 0.458 | – | > 100 | – | 0.668 | – | – | – | – | – | 0.454 | > 100 | – | – | – | – | –
11 | O=C(O)c1nc(-c2ccc(Cl)c(Cl)c2)nc2ccc(Cl)cc12 | – | > 100 | – | > 100 | – | > 100 | – | > 100 | – | 69.4 | – | 35.4 | – | > 100 | > 100 | – | – | – | – | –
12 | Nc1c(C(=O)c2cccc(C#CCO)c2)cnn1-c1ccc(F)cc1 | > 25 | > 25 | > 18.5 | > 25 | > 25 | > 25 | > 25 | > 25 | > 25 | > 25 | > 25 | > 25 | > 25 | > 25 | – | > 25 | > 25 | > 25 | > 25 | –
13 | COC(=O)c1cc2ccccc2c2c3c(ccc12)OCO3 | 56.1 | 477 | 15.5 | 129 | 278 | > 1000 | 430 | > 1000 | 14.8 | 89.5 | 12.2 | 48.1 | 40.1 | > 1000 | – | 109 | > 1000 | 306 | > 1000 | –
14 | Cn1cc(-c2csc(-c3cn(CCCN4CCCCC4)c4ccccc34)n2)c2cccnc21 | 1.53 | 2.93 | 13.7 | 28.7 | – | – | – | – | 1.59 | 3.14 | – | – | 1.87 | 3.46 | 34.5 | 1.75 | 3.17 | 1.65 | 3.29 | 16.3
15 | CCc1cccc(C)c1NC(=O)C1=C(C)NC(C)=C(C(=O)Nc2c(C)cccc2CC)C1c1ccc2c(c1)OCO2 | – | 33.2 | – | 34.6 | – | 39.4 | – | 47.2 | – | 27.2 | – | 91.9 | – | – | 58.6 | – | – | – | – | –
16 | COC1=C(C)C(=O)c2c(cc3c(c2O)C(C)(CCC=C(C)C)C(C)O3)C1=O (configuration not stated) | – | > 100 | – | 35 | – | > 100 | – | > 100 | – | > 100 | – | 37.1 | – | 97 | > 100 | – | – | – | – | –
17 | CN(C)C(=O)c1ccc([N+](=O)[O-])cc1 | – | > 100 | – | > 100 | – | > 100 | – | – | – | > 100 | – | > 100 | – | > 100 | > 100 | – | – | – | – | –
18 | COc1ccccc1CNCCCN1C(=O)c2ccc3c4c(ccc(c24)C1=O)C(=O)N(CCCN)C3=O | 1.47 | 4.89 | 1.57 | 3.04 | 1.76 | 4.73 | 1.36 | 4.52 | 0.628 | 1.83 | 1.36 | 2.72 | 0.422 | 1.56 | – | 1.38 | 2.71 | 0.329 | 1.6 | –
19 | CCOC(=O)/C(O)=C(/C(=O)OC)c1ccc(Cl)cc1 | – | > 100 | – | > 100 | – | > 100 | – | > 100 | – | – | – | > 100 | – | > 100 | > 100 | – | – | – | – | –
20 | CC(C)(C)c1[nH]nc2c1C(c1cc3ccccc3[nH]c1=O)Nc1cc(C(=O)OCc3ccccc3)ccc1N2 (configuration not stated) | 3.41 | > 100 | 3.73 | 81.9 | 8.75 | > 100 | 2.71 | > 100 | – | – | 4.37 | > 100 | 1.9 | 3.9 | – | 6.04 | > 100 | 3.37 | > 100 | –
